Consider 26 molecules from PubChem BioAssay AID248 (DTP/NCI, 2004).

Structures are written as SMILES. Several values for one entry are separate records, joined by “and”; a condition that tells them apart may be missing. Equal entries are not always repeated. Inconclusive results and toxic doses are left out.

The subject of the assay is L1210 leukemia ip in BDF1 mice, survival T/C. Nature of the assay: NCI In Vivo Anticancer Drug Screen. Data for tumor model L1210 Leukemia (intraperitoneal) in B6D2F1 (BDF1) mice. The settings on record: endpoint: mean survival time, higher = longer survival. The gist of the method: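 Tumor cells were implanted, animals were treated, and survival was followed. The result divides the treated measurement by the vehicle-control measurement.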

Where [1] appears, read: dose: 100.0 mg/kg/injection, schedule: Q01DX001 (ip), vehicle: saline.
Setting [2] is: dose: 100.0 mg/kg/injection, schedule: Q04DX002 (ip), vehicle: Klucel (hydroxypropylcellulose) (HPC).
Where [3] appears, read: dose: 200.0 mg/kg/injection, schedule: Q04DX002 (ip), vehicle: Klucel (hydroxypropylcellulose) (HPC).
Setting [4] is: dose: 400.0 mg/kg/injection, schedule: Q04DX002 (ip), vehicle: Klucel (hydroxypropylcellulose) (HPC).
[5] abbreviates: dose: 25.0 mg/kg/injection, schedule: Q01DX009 (ip), vehicle: saline with Tween-80.
The mark [6] stands for this setting: dose: 50.0 mg/kg/injection, schedule: Q01DX009 (ip), vehicle: saline with Tween-80.
Where [7] appears, read: dose: 100.0 mg/kg/injection, schedule: Q04DX003 (ip), vehicle: saline with Tween-80.
Setting [8] is: dose: 200.0 mg/kg/injection, schedule: Q04DX003 (ip), vehicle: saline with Tween-80.
The mark [9] stands for this setting: dose: 400.0 mg/kg/injection, schedule: Q04DX003 (ip), vehicle: saline with Tween-80.
The mark [10] stands for this setting: dose: 100.0 mg/kg/injection, schedule: Q04DX003 (ip), vehicle: Klucel (hydroxypropylcellulose) (HPC).
Where [11] appears, read: dose: 200.0 mg/kg/injection, schedule: Q04DX003 (ip), vehicle: Klucel (hydroxypropylcellulose) (HPC).
Setting [12] is: dose: 400.0 mg/kg/injection, schedule: Q04DX003 (ip), vehicle: Klucel (hydroxypropylcellulose) (HPC).
[13] abbreviates: dose: 50.0 mg/kg/injection, schedule: Q01DX009 (ip), vehicle: Klucel (hydroxypropylcellulose) (HPC).
Where [14] appears, read: dose: 100.0 mg/kg/injection, schedule: Q01DX009 (ip), vehicle: Klucel (hydroxypropylcellulose) (HPC).
Where [15] appears, read: dose: 200.0 mg/kg/injection, schedule: Q01DX009 (ip), vehicle: Klucel (hydroxypropylcellulose) (HPC).
The mark [16] stands for this setting: dose: 400.0 mg/kg/injection, schedule: Q01DX009 (ip), vehicle: Klucel (hydroxypropylcellulose) (HPC).
Where [17] appears, read: dose: 50.0 mg/kg/injection, schedule: Q01DX001 (ip), vehicle: carboxymethylcellulose (CMC).
The mark [18] stands for this setting: dose: 100.0 mg/kg/injection, schedule: Q01DX001 (ip), vehicle: carboxymethylcellulose (CMC).
Where [19] appears, read: dose: 200.0 mg/kg/injection, schedule: Q01DX001 (ip), vehicle: carboxymethylcellulose (CMC).
The mark [20] stands for this setting: dose: 400.0 mg/kg/injection, schedule: Q01DX001 (ip), vehicle: carboxymethylcellulose (CMC).

For `CCCCC[As](=O)(O)CCCCC`, the T/C (dose: 5.0 mg/kg/injection, schedule: Q01DX001 (ip), vehicle: saline) is 104 % of control; the T/C (dose: 10.0 mg/kg/injection, schedule: Q01DX001 (ip), vehicle: saline) was 106 % of control; the T/C (dose: 40.0 mg/kg/injection, schedule: Q01DX001 (ip), vehicle: saline) was 115 % of control; the T/C under setting [1] is 94 % of control.
For the molecule `O=S(=O)(c1ccccc1)N1CN(S(=O)(=O)c2ccccc2)CN(S(=O)(=O)c2ccccc2)C1`, the T/C is, setting by setting: under setting [2], 93 % of control; under setting [3], 100 % of control; under setting [4], 96 % of control.
Regarding `N#CCCC(C#N)(c1ccncc1)N1CCOCC1` (stereo unspecified), the T/C is, setting by setting: (dose: 12.5 mg/kg/injection, schedule: Q01DX009 (ip), vehicle: saline with Tween-80) 105 % of control; under setting [5], 102 % of control; under setting [6], 94 % of control and 91 % of control.
On to `CCOC(=O)C1=C(C)NC(C)=C(C(=O)OCC)C1c1ccc(Cl)cc1`, for which the T/C by setting is: under setting [7], 98 % of control; under setting [8], 93 % of control; under setting [9], 88 % of control.
For `O=C(Nc1ccccc1)Oc1ccc(C2CCCCC2)cc1`, the T/C runs as follows: under setting [2], 93 % of control; under setting [3], 121 % of control.
`C#CC[N+]1=CN(c2ccc(C)cc2)Cc2cc(C)ccc21`: the T/C reads like this: under setting [6], 89 % of control; (dose: 100.0 mg/kg/injection, schedule: Q01DX009 (ip), vehicle: saline with Tween-80) 93 % of control; under setting [7], 110 % of control; under setting [8], 98 % of control.
`NC(N)=NNC(=S)S`: the T/C by setting is: under setting [5], 102 % of control; under setting [6], 110 % of control; (dose: 50.0 mg/kg/injection, schedule: Q04DX003 (ip), vehicle: saline with Tween-80) 95 % of control; under setting [7], 92 % of control.
Take `CCCCOP(=O)(OCCCC)C(=O)N(CC)CC`: the T/C by setting is: under setting [10], 112 % of control; under setting [11], 101 % of control; under setting [12], 93 % of control.
On to `CC(C)=CN1CCOCC1`, for which the T/C by setting is: (dose: 25.0 mg/kg/injection, schedule: Q01DX009 (ip), vehicle: Klucel (hydroxypropylcellulose) (HPC)) 94 % of control; under setting [13], 92 % of control; under setting [14], 97 % of control and 106 % of control; under setting [10], 100 % of control; under setting [11], 100 % of control; under setting [12], 102 % of control.
As to `O=NN(CCF)C(=O)NC1CCSc2ccccc21` (stereo unspecified), the T/C was 109 % of control (dose: 6.0 mg/kg/injection, schedule: Q01DX001 (ip), vehicle: other); 120 % of control (dose: 9.0 mg/kg/injection, schedule: Q01DX001 (ip), vehicle: other); 161 % of control (dose: 20.0 mg/kg/injection, schedule: Q01DX001 (ip), vehicle: other); 289 % of control (dose: 30.0 mg/kg/injection, schedule: Q01DX001 (ip), vehicle: other).
As to `O=CNC(c1ccccc1)(c1ccccc1)c1ccccc1`, the T/C was 99 % of control under setting [14]; 102 % of control under setting [10]; 91 % of control under setting [15]; 94 % of control under setting [11]; 91 % of control under setting [16]; 102 % of control under setting [12].
Regarding `O=C(Nc1cccc(F)c1)OCCOc1ccccc1`, the T/C by setting is: (dose: 100.0 mg/kg/injection, schedule: Q01DX009 (ip), vehicle: gum acacia) 93 % of control; (dose: 200.0 mg/kg/injection, schedule: Q01DX009 (ip), vehicle: gum acacia) 102 % of control; (dose: 400.0 mg/kg/injection, schedule: Q01DX009 (ip), vehicle: gum acacia) 96 % of control.
As for `CC(C)(C)C(=O)CC(=O)C(C)(C)C.CC(C)(C)C(=O)CC(=O)C(C)(C)C.CC(C)(C)C(=O)CC(=O)C(C)(C)C.[Er]`, the T/C under setting [7] is 100 % of control, the T/C under setting [8] was 97 % of control and the T/C under setting [9] is 94 % of control.
`COC(=O)c1ccccc1NC(=O)Nc1ccc(SC)cc1`: the T/C reads like this: under setting [14], 89 % of control; under setting [15], 92 % of control; under setting [16], 95 % of control.
As to `O=C(NCCCl)NC1OCC(O)C(O)C1O` (stereo unspecified), the T/C was 112 % of control under setting [1]; 97 % of control (dose: 200.0 mg/kg/injection, schedule: Q01DX001 (ip), vehicle: saline); 103 % of control (dose: 400.0 mg/kg/injection, schedule: Q01DX001 (ip), vehicle: saline).
Consider `CC1(C)N=C(N)N=C(N)N1c1ccc(CCCCc2ccccc2Cl)cc1`, for which the T/C is, setting by setting: (dose: 12.5 mg/kg/injection, schedule: Q01DX001 (ip), vehicle: Klucel (hydroxypropylcellulose) (HPC)) 95 % of control; (dose: 25.0 mg/kg/injection, schedule: Q01DX001 (ip), vehicle: Klucel (hydroxypropylcellulose) (HPC)) 98 % of control.
For the molecule `CCC(C)NNC(C)CC` (stereo unspecified), the T/C by setting is: (dose: 75.0 mg/kg/injection, schedule: Q01DX001 (ip), vehicle: other) 98 % of control; (dose: 150.0 mg/kg/injection, schedule: Q01DX001 (ip), vehicle: other) 112 % of control; (dose: 300.0 mg/kg/injection, schedule: Q01DX001 (ip), vehicle: other) 103 % of control.
`CC1(C)c2ccccc2C(C)(C(Cl)(Cl)Cl)c2ccc(Cl)cc21` (stereo unspecified): the T/C was 98 % of control under setting [17]; 90 % of control under setting [18]; 92 % of control (dose: 100.0 mg/kg/injection, schedule: Q01DX009 (ip), vehicle: saline); 93 % of control under setting [19]; 95 % of control (dose: 200.0 mg/kg/injection, schedule: Q01DX009 (ip), vehicle: saline); 95 % of control under setting [20]. Moreover, the T/C (dose: 400.0 mg/kg/injection, schedule: Q01DX009 (ip), vehicle: saline) was 97 % of control.
For `CC1=CC2c3c([nH]c(=S)[nH]c3=O)OC(C)(C)C2CC1` (stereo unspecified), the T/C under setting [13] is 99 % of control, the T/C under setting [14] was 96 % of control and the T/C under setting [15] was 96 % of control.
Take `COc1cc(/C=N\NC(=O)c2cccc(Cl)c2)ccc1N(CCCl)CCCl`: the T/C reads like this: under setting [17], 100 % of control; under setting [18], 103 % of control; under setting [19], 105 % of control; under setting [20], 103 % of control.
For `CC(C)N(CCSC(=O)N1c2ccccc2Sc2cccnc21)C(C)C`, the T/C runs as follows: (dose: 5.0 mg/kg/injection, schedule: Q04DX003 (ip), vehicle: Klucel (hydroxypropylcellulose) (HPC)) 90 % of control; (dose: 10.0 mg/kg/injection, schedule: Q04DX003 (ip), vehicle: Klucel (hydroxypropylcellulose) (HPC)) 110 % of control.
Turning to `O=Nc1c(-c2c[nH]c3ccccc23)[nH]c2ccccc12`, the T/C is 106 % of control (dose: 50.0 mg/kg/injection, schedule: Q01DX001 (ip), vehicle: saline) and 102 % of control under setting [1].
Regarding `CCOC(=O)c1ccc(NC(=O)Oc2ccc(C=O)cc2OC)cc1`, the T/C under setting [14] is 93 % of control, the T/C under setting [15] is 101 % of control and the T/C under setting [16] is 95 % of control.
Regarding `CC(C)CCCC(C)C1CCC2C3CCC4CN(N=O)CCC4C3CCC12C` (stereo unspecified), the T/C was 102 % of control (dose: 100.0 mg/kg/injection, schedule: Q01DX001 (sc), vehicle: steriod suspending solution); 95 % of control (dose: 177.6 mg/kg/injection, schedule: Q01DX001 (sc), vehicle: steriod suspending solution); 102 % of control (dose: 200.0 mg/kg/injection, schedule: Q01DX001 (sc), vehicle: steriod suspending solution); 98 % of control (dose: 266.8 mg/kg/injection, schedule: Q01DX001 (sc), vehicle: steriod suspending solution); 98 % of control (dose: 600.0 mg/kg/injection, schedule: Q01DX001 (sc), vehicle: steriod suspending solution).
For the molecule `O=C(O)COc1cccc2ccc(Cl)cc12`, the T/C by setting is: under setting [2], 101 % of control; under setting [3], 90 % of control; under setting [4], 96 % of control.
Consider `COC(=O)CN(c1ccc(C#N)c2ccccc12)S(=O)(=O)c1ccccc1`, for which the T/C under setting [7] is 94 % of control, the T/C under setting [8] is 96 % of control and the T/C under setting [9] is 94 % of control.
